Entries after “also recorded” stand apart in the source; their conditions may differ.

The subject of series [1] is GI-LI-N cells. Kind of series: flow cytometric cell cycle analysis on GI-LI-N cells. Type of series: cell-based, human. The source says:
Moreover, the number of cells in sub-G1 phase with a hypodiploic DNA content (lower number of chromosomes than diploid DNA, i.e. 2n) increases from 3 to 22%.

For series [2], the system named is GI-LI-N cells. In words: microscopic analysis of morphologic changes/differentiation of GI-LI-N cells. Type of series: cell-based, human. The note with it: 20 μM. The method, then: In order to assess the differentiation of GI-LI-N cells towards neuronal cells, said cell line has been treated with 20 μM antisense PNA, whereby morphologic changes have been detected by means of microscopic analysis.
Microscope assessment has been carried 36 and 48 hours after GI-LI-N cell growth in the presence or absence of 20 μM antisense PNA.

In series [3] the test system is GI-LI-N cells. In words: cell growth/proliferation test, cell counting and vitality by tryphan blue exclusion. Type of series: cell-based, human. The note with it: for maximum inhibition effect on cell growth / inhibition effect in proliferation tests: GI-LI-N cells; for maximum inhibition effect on cell growth: 48 hours after treatment. The method, then: (§1) In order to show the effectiveness of the peptide nucleic acids selected by the Applicant, the latter has carried out experimental tests by selecting four neuroblastoma cell lines: GI-LI-N, IMR-32 where N-myc gene is amplified and overexpressed; and GI-CA-N, GI-ME-N where N-myc gene is not amplified and is not expressed.
(§2) In threefold tests using plates with 24 wells, 1.0×10^5 cells have been introduced into the first wells with 0.5 ml of RPMI1640 containing 10% of FBS and 2 mM of […].
(§3) Cells have been incubated for 24 hours so as to let them adhere to the base of the wells.
(§4) Then, in order to assess the optimal concentration for cell growth inhibition, peptide nucleic acid has been added to GI-LI-N cells in concentration of 10, 20, 40 and 60 μM for 5′-UTR antisense PNA, whereas for sense and antisense anti-gene PNAs in concentrations of 1, 2, 5, 10 and 20 μM on GI-LI-N and IMR-32 cells-
(§5) Then, in order to assess the effects of the treatments, cells have been collected and counted 24, 48 and 72 hours after treatment.
(§6) Cells counting and vitality has been determined using colorimetric exclusion method (tryphan blue dye).

The test system of series [4] is GI-LI-N cells. Kind of series: cell entry and intracellular localization by fluorescence microscopy of rhodamine-conjugated PNA. Type of series: cell-based, human. The method, then: (§7) In order to assess the ability of antisense PNAs and of anti-gene PNAs to get into human neuroblastoma cells and to analyze the subsequent intracellular localization, the Applicant has used four cell lines GI-LI-N and IMR-32, GI-CA-N and GI-ME-N- and has treated them for 30 minutes to 24 hours with 20 μM of antisense or sense PNA conjugated with rhodamine in 5′. Anti-gene PNAs were further conjugated with NLS in 3′.

Series [5] concerns GI-CA-N cells. The description is as above. Type of series: cell-based, human. The procedure: as §7
In a further series the test system is N-MYC (protein). Kind of series: production of N-MYC protein by Western Blotting in GI-LI-N cell line. Type of series: cell-based, human. The note with it: for N-MYC protein level (Western Blotting): 20 μM, GI-LI-N.
Series [6] concerns GI-CA-N cells. Kind of series: cell growth/proliferation test, cell counting and vitality by tryphan blue exclusion. Type of series: cell-based, human. The note with it: same conditions. The method, then:
as §1, §2, §3
In order to assess the specificity of sense and antisense anti-gene PNAs, GI-ME-N and GI-CA-N (in which N-myc gene is not amplified and is not […] for sense anti-gene PNA).
as §5, §6

Series [7] has as its system IMR-32 cells. Described as above. Type of series: cell-based, human. As to conditions: 10 μM. The method, then:
as §1, §2, §3, §4, §5, §6

For series [8], the system named is IMR-32 cells. Kind of series: cytofluorimetric cell cycle analysis in IMR-32 cells. Type of series: cell-based, human. The note with it: 10 μM; for cells in G2/M / cells in Go/G1 / cells in S phase: IMR-32. The procedure: A cytofluorimetric analysis in IMR-32 cells 24 and 48 hours after the treatment with sense anti-gene PNA in a concentration of 10 μM, induced a cell accumulation in Go/G1 (from 39% to 53% after 24 hours; from 31% to 53% after 48 hours) and decrease in G2/M (from 17% to 6% after 24 hours; from 25% to 9% after 48 hours) and S phase (from 45 to 41% after 24 hours; from 44% to 39% after 48 hours).

For a further series, the system named is HeLa cells. In words: cell growth/proliferation test in cervical carcinoma cells. Type of series: cell-based. The note with it: 10 μM. The method, then:
(§8) The treatment with 10 μM sense anti-gene PNA has also been carried out in HT29 cells (deriving from colon carcinoma) and in HeLa cells (deriving from cervical carcinoma) expressing N-myc gene.

The next series concerns HT29 cells. Kind of series: cell growth/proliferation test in colon carcinoma cells. As to conditions: 10 μM. Type of series: cell-based. The method, then: as §8
The next series relates to N-MYC protein. Kind of series: production of N-MYC protein by Western Blotting in IMR-32 cell line. Type of series: cell-based, human. As to conditions: 10 μM. The method, then:
In further tests on sense anti-gene PNA, the production of N-MYC protein was assessed by using Western Blotting in IMR-32 cell line after 3 hours of treatment with 10 μM sense anti-gene PNA. A reduction of 50% of protein level has been detected after 3 hours of treatment with sense anti-gene PNA.

In the next series the test system is N-myc transcript. Kind of series: production of N-myc transcript by PCR of cDNA from GI-LI-N cells. Type of series: cell-based, human. As to conditions: 10 μM, 30 PCR cycles, easily detected in untreated cells. The method, then: The production of N-myc transcript was assessed before and after […] treatment with 10 μM sense anti-gene PNA by amplification in PCR of cDNA obtained from 250 ng of mRNA of GI-LI-N cells. The following primers have been used: sense SEQ ID NO: 5 (ExonE 2, by 2366); antisense SEQ ID NO: 6(Exon 3, by 5095) (Genbank M13241). PCR has been carried out with 30 reaction cycles.

A further series concerns GI-ME-N cells. In words: cell growth/proliferation test, cell counting and vitality by tryphan blue exclusion. Type of series: cell-based, human. The note with it: 10 μM; GI-ME-N cells (N-myc not amplified, not expressed); same conditions. The procedure:
as §1, §2, §3
In order to assess the specificity of sense and antisense anti-gene PNAs, GI-ME-N and GI-CA-N (in which N-myc gene is not amplified and is not expressed) have been treated with sense and antisense anti-gene PNA in a concentration of […] (optimal concentration selected for sense anti-gene PNA).
as §5, §6

[9] abbreviates: same test conditions used for sense anti-gene PNA.
[10] abbreviates: 10 μM, cell line not restated (GI-LI-N).

On to “antisense PNA: antisense peptide nucleic acid (bp 135-150, SEQ ID NO: 1) complementary to one sequence in 5′-UTR region of N-myc gene (antisense TCCACCCAGCGCGTCC; all peptide nucleic acid (PNA))”, for which the “cells in sub-G1 phase with hypodiploic DNA content” value in the series with GI-LI-N cells [1] (20 μM, GI-LI-N, 36 hours after treatment, from 3 untreated) worked out at 22%. Also, the “cells in G2” value in the series on GI-LI-N cells [1] (20 μM, GI-LI-N, 36 hours after treatment, from 13 untreated) is 6%. Besides, the “cells in G0/G1” value in the series with GI-LI-N cells [1] (20 μM, GI-LI-N, 36 hours after treatment, from 34% untreated) came to 57%. In the series with GI-LI-N cells [1] (20 μM, GI-LI-N, 36 hours after treatment, from 53% untreated), the “cells in S phase” value is 37%. In addition, the entries for the “morphologic changes (microscope)” value with GI-LI-N cells [2] (after 36 hours) and with GI-LI-N cells [2] (after 48 hours) were “less uniform distribution than control cells” and “tend to form small cell aggregates”, respectively. Further, the “maximum inhibition effect on cell growth” value in the series on GI-LI-N cells [3] (20 μM) came to 70%. The “time after treatment at which intracytoplasmatic fluorescence can already be measured” value in the series on GI-LI-N cells [4] (20 μM PNA conjugated with rhodamine in 5′, GI-LI-N) is ≤ 30 min; in the series with GI-CA-N cells [5] (20 μM PNA conjugated with rhodamine in 5′), ≤ 30 min. For the same substance, the “time to maximum fluorescence intensity” value amounted to 6 h in the series with GI-LI-N cells [4] (20 μM rhodamine-conjugated PNA, GI-LI-N, level then constant for 24 hours) and 6 h in the series on GI-CA-N cells [5] (20 μM rhodamine-conjugated PNA, level then constant for 24 hours). Further, in the series on GI-LI-N cells [4] (20 μM rhodamine-conjugated PNA, cell lines of b80), the “intracellular localization of fluorescence” value is “High intracytoplasmatic values”. The “N-MYC protein level (Western Blotting)” value in the series with N-MYC (protein) (after 24 hours) was “evident reduction”; in the series with N-MYC (protein) (after 72 hours) it was “reduction decreases”. The “inhibition effect on cell growth” value with GI-CA-N cells [6] (20 μM, GI-CA-N cells (N-myc not amplified)) is given as “do not show any inhibition effect”.
Turning to “antisense anti-gene PNA: antisense anti-gene PNA (SEQ ID NO: 4) complementary to a sequence of exon 2 N-myc gene, NLS-conjugated (antisense AGATCATGCCCGGCAT; all peptide nucleic acid (PNA); SV40 nuclear localization signal peptide conjugated at 3' end, further chemistry not fully specified)”, the “inhibition effect in proliferation tests” value in the series with GI-LI-N cells [3] (10 μM) and with IMR-32 cells [7] (IMR-32 cells) was “have not shown any inhibition effect; also recorded: do not show any inhibition effect” each time.
For the substance “mutated anti-gene PNA: mutated PNA containing the substitution of three bases (SEQ ID NO: 7), specificity control for sense anti-gene PNA (GTGCCGAGCATGGTCT; all peptide nucleic acid (PNA))”, the “inhibition effect in cell cycle” value in the series on IMR-32 cells [8] (setting [9]) was “No inhibition effect”. For the same substance, the “inhibition effect in proliferation tests” value with HeLa cells and in the series with HT29 cells was “have not shown any inhibition effect” each time. The “inhibition effect in cell vitality” value with IMR-32 cells [7] (setting [9]) was “No inhibition effect”. In addition, the “inhibition effect in the amount of N-MYC protein” value in the series with N-MYC protein (setting [9]) is given as “No inhibition effect”.
In the case of “mutated antisense PNA: mutated PNA containing the substitution of three bases (SEQ ID NO: 2), specificity control for antisense PNA (CCCACTCAGCGCGCCC; all peptide nucleic acid (PNA))”, the “inhibition effect in cell cycle” value in the series on GI-LI-N cells [1] (setting [10]) is “no inhibition effect”. Besides, the “inhibition effect in cell vitality” value with GI-LI-N cells [3] (setting [10]) was “no inhibition effect”. In addition, the “inhibition effect in proliferation tests” value with GI-LI-N cells [3] (20 μM) is recorded as “have not shown any inhibition effect”. The “inhibition effect in the amount of N-MYC protein” value in the series on N-MYC (protein) (setting [10]) is reported as “no inhibition effect”.
Turning to “sense anti-gene PNA: sense anti-gene PNA (SEQ ID NO: 3) complementary to a sequence of exon 2 N-myc gene, NLS-conjugated (ATGCCGGGCATGATCT; all peptide nucleic acid (PNA); SV40 nuclear localization signal peptide conjugated at 3' end, further chemistry not fully specified)”, the “cells in G2/M” value with IMR-32 cells [8] (after 24 hours, from 17% untreated) was 6%; with IMR-32 cells [8] (after 48 hours, from 25% untreated), 9%. The “cells in Go/G1” value in the series on IMR-32 cells [8] (after 24 hours, from 39% untreated) was 53%; with IMR-32 cells [8] (after 48 hours, from 31% untreated) it was 53%. Besides, the “cells in S phase” value is reported as 41% with IMR-32 cells [8] (after 24 hours, from 45 untreated) and 39% with IMR-32 cells [8] (after 48 hours, from 44% untreated). Besides, the “PCR product of N-myc transcript” value with N-myc transcript is “cannot be detected”. Moreover, the “maximum inhibition effect on cell growth” value in the series on HeLa cells (24 hours after treatment) is given as 70%; in the series with GI-LI-N cells [3] (10 μM), 90%; in the series with IMR-32 cells [7] (IMR-32 cells, 48 hours after treatment), 80%; in the series with HT29 cells (48 hours after treatment), 70%. Besides, the “inhibition effect on cell growth” value is recorded as “do not show any inhibition effect” with GI-ME-N cells and “do not show any inhibition effect” with GI-CA-N cells [6] (10 μM, GI-CA-N cells (N-myc not amplified, not expressed)). The “reduction of N-MYC protein level (Western Blotting)” value in the series on N-MYC protein (IMR-32, after 3 hours of treatment) was 50%.
